# Experiments:
# Assay type in all cases: functional
# HCT-116 = assay: Growth inhibition of human HCT116 cells assessed as cell growth at 1 uM incubated for 48 hrs by sulforhodamine B assay relative to control; settings: HCT-116, 48 h, read-out: Activity
# MOLT-4 = assay: Growth inhibition of human MOLT4 cells assessed as cell growth at 0.01 uM incubated for 48 hrs by sulforhodamine B assay relative to control; settings: MOLT-4, 48 h, read-out: Activity
# SF-539 [1] = assay: Growth inhibition of human SF539 cells assessed as cell growth at 1 uM incubated for 48 hrs by sulforhodamine B assay relative to control; settings: SF-539, 48 h, read-out: Activity
# SW-620 = assay: Growth inhibition of human SW620 cells incubated for 48 hrs by sulforhodamine B assay; settings: SW-620, 48 h
# Hs-578T = assay: Growth inhibition of human Hs 578T cells assessed as cell growth at 0.01 uM incubated for 48 hrs by sulforhodamine B assay relative to control; settings: read-out: Activity
# RPMI-8226 = assay: Growth inhibition of human RPMI8226 cells assessed as cell growth at 0.1 uM incubated for 48 hrs by sulforhodamine B assay relative to control; settings: RPMI-8226, 48 h, read-out: Activity
# U-251 = assay: Growth inhibition of human U251 cells assessed as cell growth at 0.1 uM incubated for 48 hrs by sulforhodamine B assay relative to control; settings: U-251, 48 h, read-out: Activity
# NCI-H322M [2] = assay: Growth inhibition of human NCI-H322M cells assessed as cell growth at 100 uM incubated for 48 hrs by sulforhodamine B assay relative to control; settings: read-out: Activity
# M14 [3] = assay: Growth inhibition of human M14 cells assessed as cell growth at 100 uM incubated for 48 hrs by sulforhodamine B assay relative to control; settings: M14, 48 h, read-out: Activity
# HCT-15 = assay: Growth inhibition of human HCT15 cells assessed as cell growth at 0.01 uM incubated for 48 hrs by sulforhodamine B assay relative to control; settings: HCT-15, 48 h, read-out: Activity
# MCF7 = assay: Growth inhibition of human MCF7 cells assessed as cell growth at 0.1 uM incubated for 48 hrs by sulforhodamine B assay relative to control; settings: MCF7, 48 h, read-out: Activity
# SR = assay: Growth inhibition of human SR cells incubated for 48 hrs by sulforhodamine B assay
# NCI-H322M [4] = assay: Growth inhibition of human NCI-H322M cells assessed as cell growth at 0.1 uM incubated for 48 hrs by sulforhodamine B assay relative to control; settings: read-out: Activity
# SK-MEL-5 = assay: Growth inhibition of human SK-MEL-5 cells incubated for 48 hrs by sulforhodamine B assay; settings: SK-MEL-5, 48 h
# HOP-62 = assay: Growth inhibition of human HOP62 cells assessed as cell growth at 100 uM incubated for 48 hrs by sulforhodamine B assay relative to control; settings: HOP-62, 48 h, read-out: Activity
# SF-268 = assay: Growth inhibition of human SF268 cells assessed as cell growth at 0.1 uM incubated for 48 hrs by sulforhodamine B assay relative to control; settings: SF-268, 48 h, read-out: Activity
# BT-549 = assay: Growth inhibition of human BT549 cells assessed as cell growth at 100 uM incubated for 48 hrs by sulforhodamine B assay relative to control; settings: BT-549, 48 h, read-out: Activity
# EKVX = assay: Growth inhibition of human EKVX cells incubated for 48 hrs by sulforhodamine B assay
# COLO 205 = assay: Growth inhibition of human COLO205 cells incubated for 48 hrs by sulforhodamine B assay; settings: COLO 205, 48 h
# SF-539 [5] = assay: Growth inhibition of human SF539 cells assessed as cell growth at 0.1 uM incubated for 48 hrs by sulforhodamine B assay relative to control; settings: SF-539, 48 h, read-out: Activity
# MDA-MB-435 = assay: Growth inhibition of human MDA-MB-435 cells assessed as cell growth at 100 uM incubated for 48 hrs by sulforhodamine B assay relative to control; settings: MDA-MB-435, 48 h, read-out: Activity
# KM12 = assay: Growth inhibition of human KM12 cells assessed as cell growth at 100 uM incubated for 48 hrs by sulforhodamine B assay relative to control; settings: KM12, 48 h, read-out: Activity
# NCI-H322M [6] = assay: Growth inhibition of human NCI-H322M cells incubated for 48 hrs by sulforhodamine B assay
# MDA-MB-231 = assay: Growth inhibition of human MDA-MB-231 cells assessed as cell growth at 0.01 uM incubated for 48 hrs by sulforhodamine B assay relative to control; settings: MDA-MB-231, 48 h, read-out: Activity
# A498 = assay: Growth inhibition of human A498 cells assessed as cell growth at 100 uM incubated for 48 hrs by sulforhodamine B assay relative to control; settings: A498, 48 h, read-out: Activity
# MDA-MB-468 = assay: Growth inhibition of human MDA-MB-468 cells incubated for 48 hrs by sulforhodamine B assay; settings: MDA-MB-468, 48 h
# PC-3 = assay: Growth inhibition of human PC3 cells incubated for 48 hrs by sulforhodamine B assay; settings: PC-3, 48 h
# M14 [7] = assay: Growth inhibition of human M14 cells assessed as cell growth at 1 uM incubated for 48 hrs by sulforhodamine B assay relative to control; settings: M14, 48 h, read-out: Activity
# SK-MEL-28 = assay: Growth inhibition of human SK-MEL-28 cells assessed as cell growth at 100 uM incubated for 48 hrs by sulforhodamine B assay relative to control; settings: SK-MEL-28, 48 h, read-out: Activity
# [8] = read-out: LC50 (the source's name)
# [9] = read-out: pLC50 (the source's name) (converted)
compound,measurement,setting,value
c1ccc2[nH]c(-c3ccc(-c4nccc5c4[nH]c4ccccc45)cc3)nc2c1,growth at 1 µM,HCT-116,90%
same,growth at 0.01 µM,MOLT-4,96%
same,growth at 1 µM,SF-539 [1],98%
same,GI50,SW-620; read-out: GI50,2.79 µM
same,CC50,SW-620; [8],> 1 µM
same,TGI,SW-620; read-out: TGI,8.48 µM
same,GI50,SW-620; read-out: pGI50 (converted),2.82 µM
same,CC50,SW-620; [9],> 100 µM
same,TGI,SW-620; read-out: pTGI (converted),8.51 µM
same,growth at 0.01 µM,Hs-578T,99%
same,growth at 0.1 µM,RPMI-8226,105%
same,growth at 0.1 µM,U-251,104%
same,growth at 100 µM,NCI-H322M [2],75%
same,growth at 100 µM,M14 [3],76%
same,growth at 0.01 µM,HCT-15,93%
same,growth at 0.1 µM,MCF7,96%
same,GI50,SR; read-out: GI50,2.21 µM
same,CC50,SR; [8],> 1 µM
same,TGI,SR; read-out: TGI,6.36 µM
same,GI50,SR; read-out: pGI50 (converted),2.19 µM
same,CC50,SR; [9],> 100 µM
same,TGI,SR; read-out: pTGI (converted),6.31 µM
same,growth at 0.1 µM,NCI-H322M [4],101%
same,CC50,SK-MEL-5; [8],4.42 µM
same,GI50,SK-MEL-5; read-out: pGI50 (converted),3.72 µM
same,CC50,SK-MEL-5; [9],44.7 µM
same,TGI,SK-MEL-5; read-out: pTGI (converted),14.5 µM
same,growth at 100 µM,HOP-62,70%
same,growth at 0.1 µM,SF-268,96%
same,growth at 100 µM,BT-549,43%
same,GI50,EKVX; read-out: GI50,3.45 µM
same,CC50,EKVX; [8],> 1 µM
same,GI50,EKVX; read-out: pGI50 (converted),3.47 µM
same,CC50,EKVX; [9],> 100 µM
same,TGI,EKVX; read-out: pTGI (converted),17 µM
same,GI50,COLO 205; read-out: GI50,2.32 µM
same,CC50,COLO 205; [8],4.35 µM
same,TGI,COLO 205; read-out: TGI,6.22 µM
same,GI50,COLO 205; read-out: pGI50 (converted),2.34 µM
same,CC50,COLO 205; [9],43.7 µM
same,TGI,COLO 205; read-out: pTGI (converted),6.17 µM
same,growth at 0.1 µM,SF-539 [5],98%
same,growth at 100 µM,MDA-MB-435,67%
same,growth at 100 µM,KM12,76%
same,GI50,NCI-H322M [6]; read-out: GI50,2.86 µM
same,CC50,NCI-H322M [6]; [8],4.41 µM
same,TGI,NCI-H322M [6]; read-out: TGI,8.9 µM
same,GI50,NCI-H322M [6]; read-out: pGI50 (converted),2.88 µM
same,CC50,NCI-H322M [6]; [9],43.7 µM
same,TGI,NCI-H322M [6]; read-out: pTGI (converted),8.91 µM
same,growth at 0.01 µM,MDA-MB-231,90%
same,growth at 100 µM,A498,85%
same,GI50,MDA-MB-468; read-out: GI50,2.52 µM
same,CC50,MDA-MB-468; [8],4.97 µM
same,TGI,MDA-MB-468; read-out: TGI,6.62 µM
same,GI50,MDA-MB-468; read-out: pGI50 (converted),2.51 µM
same,CC50,MDA-MB-468; [9],50.1 µM
same,TGI,MDA-MB-468; read-out: pTGI (converted),6.61 µM
same,GI50,PC-3; read-out: GI50,8.59 µM
same,CC50,PC-3; [8],6.68 µM
same,GI50,PC-3; read-out: pGI50 (converted),8.51 µM
same,CC50,PC-3; [9],66.1 µM
same,TGI,PC-3; read-out: pTGI (converted),25.1 µM
same,growth at 1 µM,M14 [7],92%
same,growth at 100 µM,SK-MEL-28,69%
c1ccc2c3c([nH]c2c1)C(c1ccc(C2NCCc4c2[nH]c2ccccc42)cc1)NCC3 (racemic),growth at 1 µM,HCT-116,81%
same,growth at 0.01 µM,MOLT-4,110%
same,growth at 1 µM,SF-539 [1],88%
same,GI50,SW-620; read-out: GI50,1.85 µM
same,CC50,SW-620; [8],6.39 µM
same,TGI,SW-620; read-out: TGI,3.44 µM
same,GI50,SW-620; read-out: pGI50 (converted),0.186 µM
same,CC50,SW-620; [9],0.646 µM
same,growth at 0.01 µM,Hs-578T,93%
same,growth at 0.1 µM,RPMI-8226,105%
same,growth at 0.1 µM,U-251,97%
same,growth at 100 µM,NCI-H322M [2],96%
same,growth at 100 µM,M14 [3],95%
same,growth at 0.01 µM,HCT-15,94%
same,growth at 0.1 µM,MCF7,90%
same,GI50,SR; read-out: GI50,2.47 µM
same,CC50,SR; [8],4.51 µM
same,TGI,SR; read-out: TGI,5.56 µM
same,GI50,SR; read-out: pGI50 (converted),0.245 µM
same,CC50,SR; [9],4.47 µM
same,TGI,SR; read-out: pTGI (converted),0.55 µM
same,growth at 0.1 µM,NCI-H322M [4],91%
same,GI50,SK-MEL-5; read-out: GI50,1.7 µM
same,CC50,SK-MEL-5; [8],5.75 µM
same,TGI,SK-MEL-5; read-out: TGI,3.13 µM
same,GI50,SK-MEL-5; read-out: pGI50 (converted),1.7 µM
same,CC50,SK-MEL-5; [9],5.75 µM
same,TGI,SK-MEL-5; read-out: pTGI (converted),3.16 µM
same,growth at 100 µM,HOP-62,83%
same,growth at 0.1 µM,SF-268,89%
same,growth at 100 µM,BT-549,-90%
same,GI50,EKVX; read-out: GI50,1.42 µM
same,CC50,EKVX; [8],8.12 µM
same,TGI,EKVX; read-out: TGI,3.39 µM
same,GI50,EKVX; read-out: pGI50 (converted),2.24 µM
same,CC50,EKVX; [9],8.13 µM
same,TGI,EKVX; read-out: pTGI (converted),3.39 µM
same,GI50,COLO 205; read-out: GI50,2.04 µM
same,CC50,COLO 205; [8],1.2 µM
same,TGI,COLO 205; read-out: TGI,4.59 µM
same,GI50,COLO 205; read-out: pGI50 (converted),0.204 µM
same,CC50,COLO 205; [9],1.2 µM
same,TGI,COLO 205; read-out: pTGI (converted),0.457 µM
same,growth at 0.1 µM,SF-539 [5],95%
same,growth at 100 µM,MDA-MB-435,97%
same,growth at 100 µM,KM12,88%
same,GI50,NCI-H322M [6]; read-out: GI50,1.25 µM
same,CC50,NCI-H322M [6]; [8],5.68 µM
same,TGI,NCI-H322M [6]; read-out: TGI,2.66 µM
same,GI50,NCI-H322M [6]; read-out: pGI50 (converted),1.26 µM
same,CC50,NCI-H322M [6]; [9],5.62 µM
same,TGI,NCI-H322M [6]; read-out: pTGI (converted),2.69 µM
same,growth at 0.01 µM,MDA-MB-231,97%
same,growth at 100 µM,A498,-85%
same,CC50,MDA-MB-468; [8],5.01 µM
same,GI50,MDA-MB-468; read-out: pGI50 (converted),0.363 µM
same,CC50,MDA-MB-468; [9],5.01 µM
same,TGI,MDA-MB-468; read-out: pTGI (converted),1.35 µM
same,GI50,PC-3; read-out: GI50,1.27 µM
same,CC50,PC-3; [8],5.69 µM
same,TGI,PC-3; read-out: TGI,2.69 µM
same,GI50,PC-3; read-out: pGI50 (converted),1.26 µM
same,CC50,PC-3; [9],5.75 µM
same,TGI,PC-3; read-out: pTGI (converted),2.69 µM
same,growth at 1 µM,M14 [7],21%
same,growth at 100 µM,SK-MEL-28,93%
